#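 Test compounds were applied to cells in 96-well plates for 48 hours at 5 doses. Definition used: TGI = concentration required for complete inhibition of growth.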
# Key:
# Assay in all cases: DTP human tumour cell line panel, 48 h
# MALME-3M melanoma = test system: MALME-3M melanoma
# ACHN renal = test system: ACHN renal
# U251 CNS = test system: U251 CNS
# M14 melanoma = test system: M14 melanoma
# SNB-75 CNS = test system: SNB-75 CNS
# HCT-116 colon = test system: HCT-116 colon
# PC-3 prostate = test system: PC-3 prostate
# OVCAR-3 ovarian = test system: OVCAR-3 ovarian
# UACC-62 melanoma = test system: UACC-62 melanoma
# K-562 leukemia = test system: K-562 leukemia
# HOP-92 NSCLC = test system: HOP-92 NSCLC
# SR leukemia = test system: SR leukemia
# HCT-15 colon = test system: HCT-15 colon
# HOP-62 NSCLC = test system: HOP-62 NSCLC
# HL-60(TB) leukemia = test system: HL-60(TB) leukemia
# COLO 205 colon = test system: COLO 205 colon
# SK-MEL-2 melanoma = test system: SK-MEL-2 melanoma
# CAKI-1 renal = test system: CAKI-1 renal
# NCI-H460 lung = test system: NCI-H460 lung
# SK-MEL-5 melanoma = test system: SK-MEL-5 melanoma
# TK-10 renal = test system: TK-10 renal
# SK-MEL-28 melanoma = test system: SK-MEL-28 melanoma
# BT-549 breast = test system: BT-549 breast
# SF-268 CNS = test system: SF-268 CNS
# MDA-MB-231 breast = test system: MDA-MB-231 breast
# NCI-H23 lung = test system: NCI-H23 lung
# MDA-N = test system: MDA-N
# SN12C renal = test system: SN12C renal
# NCI/ADR-RES ovarian = test system: NCI/ADR-RES ovarian
# UACC-257 melanoma = test system: UACC-257 melanoma
# NCI-H226 lung = test system: NCI-H226 lung
# SK-OV-3 ovarian = test system: SK-OV-3 ovarian
# SNB-19 CNS = test system: SNB-19 CNS
# NCI-H522 lung = test system: NCI-H522 lung
# T-47D breast = test system: T-47D breast
# HS 578T breast = test system: HS 578T breast
# HT29 colon = test system: HT29 colon
# A549 NSCLC = test system: A549 NSCLC
# RPMI-8226 leukemia = test system: RPMI-8226 leukemia
# OVCAR-4 ovarian = test system: OVCAR-4 ovarian
# UO-31 renal = test system: UO-31 renal
# IGROV1 ovarian = test system: IGROV1 ovarian
# CCRF-CEM leukemia = test system: CCRF-CEM leukemia
# OVCAR-8 ovarian = test system: OVCAR-8 ovarian
# SF-539 CNS = test system: SF-539 CNS
# MDA-MB-435 = test system: MDA-MB-435
# EKVX NSCLC = test system: EKVX NSCLC
# MCF7 breast = test system: MCF7 breast
# MOLT-4 leukemia = test system: MOLT-4 leukemia
# OVCAR-5 ovarian = test system: OVCAR-5 ovarian
# SW-620 colon = test system: SW-620 colon
# RXF 393 renal = test system: RXF 393 renal
# HCC-2998 colon = test system: HCC-2998 colon
# 786-0 renal = test system: 786-0 renal
# DU-145 prostate = test system: DU-145 prostate
# LOX IMVI melanoma = test system: LOX IMVI melanoma
# SF-295 CNS = test system: SF-295 CNS
# KM12 colon = test system: KM12 colon
# A498 renal = test system: A498 renal
structure (smiles),measurement,setting,value
Cc1ccc(OCC2OC(n3cnc4c(Cl)nc(N)nc43)CC2Oc2ccc(C)cc2)cc1 (centres undefined),TGI,MALME-3M melanoma,> 85.3 µM
same,TGI,ACHN renal,40 µM
same,TGI,U251 CNS,> 100 µM
same,TGI,M14 melanoma,> 100 µM
same,TGI,SNB-75 CNS,> 100 µM
same,TGI,HCT-116 colon,> 100 µM
same,TGI,PC-3 prostate,> 58.5 µM
same,TGI,OVCAR-3 ovarian,> 63.9 µM
same,TGI,UACC-62 melanoma,> 100 µM
same,TGI,K-562 leukemia,> 100 µM
same,TGI,HOP-92 NSCLC,51.7 µM
same,TGI,SR leukemia,> 100 µM
same,TGI,HCT-15 colon,> 100 µM
same,TGI,HOP-62 NSCLC,> 52.5 µM
same,TGI,HL-60(TB) leukemia,> 71.7 µM
same,TGI,COLO 205 colon,98.2 µM
same,TGI,SK-MEL-2 melanoma,> 56.9 µM
same,TGI,CAKI-1 renal,20.3 µM
same,TGI,NCI-H460 lung,> 100 µM
same,TGI,SK-MEL-5 melanoma,> 100 µM
same,TGI,TK-10 renal,> 100 µM
same,TGI,SK-MEL-28 melanoma,> 100 µM
same,TGI,BT-549 breast,> 100 µM
same,TGI,SF-268 CNS,> 100 µM
same,TGI,MDA-MB-231 breast,> 100 µM
same,TGI,NCI-H23 lung,49.7 µM
same,TGI,MDA-N,> 100 µM
same,TGI,SN12C renal,> 100 µM
same,TGI,NCI/ADR-RES ovarian,> 75.5 µM
same,TGI,UACC-257 melanoma,> 100 µM
same,TGI,NCI-H226 lung,> 100 µM
same,TGI,SK-OV-3 ovarian,> 100 µM
same,TGI,SNB-19 CNS,> 100 µM
same,TGI,NCI-H522 lung,12.1 µM
same,TGI,T-47D breast,> 100 µM
same,TGI,HS 578T breast,> 100 µM
same,TGI,HT29 colon,> 100 µM
same,TGI,A549 NSCLC,> 100 µM
same,TGI,RPMI-8226 leukemia,> 100 µM
same,TGI,OVCAR-4 ovarian,61.3 µM
same,TGI,UO-31 renal,13.3 µM
same,TGI,IGROV1 ovarian,61.5 µM
same,TGI,CCRF-CEM leukemia,> 100 µM
same,TGI,OVCAR-8 ovarian,> 100 µM
same,TGI,SF-539 CNS,> 100 µM
same,TGI,MDA-MB-435,> 100 µM
same,TGI,EKVX NSCLC,> 59.3 µM
same,TGI,MCF7 breast,> 13.3 µM
same,TGI,MOLT-4 leukemia,> 100 µM
same,TGI,OVCAR-5 ovarian,> 100 µM
same,TGI,SW-620 colon,> 100 µM
same,TGI,RXF 393 renal,> 100 µM
same,TGI,HCC-2998 colon,> 57.4 µM
same,TGI,786-0 renal,> 100 µM
same,TGI,DU-145 prostate,> 100 µM
same,TGI,LOX IMVI melanoma,> 100 µM
same,TGI,SF-295 CNS,> 100 µM
same,TGI,KM12 colon,> 100 µM
same,TGI,A498 renal,> 100 µM
COc1ccc2c3c1OC1C(=O)C=CC4(CC2)N(C)CCC314 (centres undefined),TGI,MALME-3M melanoma,> 100 µM
same,TGI,ACHN renal,73.9 µM
same,TGI,U251 CNS,53 µM
same,TGI,M14 melanoma,49.6 µM
same,TGI,SNB-75 CNS,> 100 µM
same,TGI,HCT-116 colon,29.1 µM
same,TGI,PC-3 prostate,> 100 µM
same,TGI,OVCAR-3 ovarian,> 100 µM
same,TGI,K-562 leukemia,> 100 µM
same,TGI,HOP-92 NSCLC,> 100 µM
same,TGI,SR leukemia,33.7 µM
same,TGI,HCT-15 colon,> 100 µM
same,TGI,HOP-62 NSCLC,> 100 µM
same,TGI,COLO 205 colon,22.7 µM
same,TGI,SK-MEL-2 melanoma,54.3 µM
same,TGI,CAKI-1 renal,> 100 µM
same,TGI,NCI-H460 lung,71.1 µM
same,TGI,SK-MEL-5 melanoma,24.4 µM
same,TGI,TK-10 renal,> 100 µM
same,TGI,SK-MEL-28 melanoma,66.1 µM
same,TGI,BT-549 breast,90.8 µM
same,TGI,SF-268 CNS,91 µM
same,TGI,MDA-MB-231 breast,> 100 µM
same,TGI,NCI-H23 lung,> 100 µM
same,TGI,MDA-N,> 100 µM
same,TGI,SN12C renal,> 100 µM
same,TGI,NCI/ADR-RES ovarian,> 100 µM
same,TGI,UACC-257 melanoma,> 100 µM
same,TGI,SK-OV-3 ovarian,> 100 µM
same,TGI,SNB-19 CNS,76.9 µM
same,TGI,NCI-H522 lung,33 µM
same,TGI,T-47D breast,> 100 µM
same,TGI,HS 578T breast,92.5 µM
same,TGI,HT29 colon,> 100 µM
same,TGI,A549 NSCLC,84.1 µM
same,TGI,RPMI-8226 leukemia,45.6 µM
same,TGI,OVCAR-4 ovarian,> 100 µM
same,TGI,UO-31 renal,78.5 µM
same,TGI,IGROV1 ovarian,> 100 µM
same,TGI,CCRF-CEM leukemia,51.5 µM
same,TGI,OVCAR-8 ovarian,> 100 µM
same,TGI,MDA-MB-435,61.2 µM
same,TGI,EKVX NSCLC,92.8 µM
same,TGI,MCF7 breast,> 100 µM
same,TGI,MOLT-4 leukemia,59 µM
same,TGI,OVCAR-5 ovarian,92.4 µM
same,TGI,SW-620 colon,> 100 µM
same,TGI,RXF 393 renal,> 100 µM
same,TGI,HCC-2998 colon,27.4 µM
same,TGI,786-0 renal,63.7 µM
same,TGI,DU-145 prostate,> 100 µM
same,TGI,LOX IMVI melanoma,> 100 µM
same,TGI,SF-295 CNS,> 100 µM
same,TGI,KM12 colon,43.4 µM
same,TGI,A498 renal,58.7 µM

# — PubChem BioAssay (NCI)
